According to article PMC8166343 (Biochemical Journal, 2021):

Tests used:
ING3 PHD finger = format: binding
SPIN1 TUDOR = format: binding; settings: 1 h, 4°C; pH 7.5
TAF3 PHD finger = format: binding
ING3 PHD = format: binding; settings: 1 h, 4°C; pH 7.5
PHF23 PHD finger = format: binding
KDM7A PHD finger = format: binding
endogenous SPIN1 = format: binding; settings: 1 h, 4°C
PHF2 PHD finger = format: binding
Set7/9 = format: biochemical; settings: pH 8.5
endogenous PHF2 = format: binding; settings: 1 h, 4°C
PHF2 PHD = format: binding; settings: 1 h, 4°C; pH 7.5

PRRK(me3)QQAPRRSA-Biotin (PRRKQQAPRRSA) [TSHZ1 K4me3]
interaction with ING3 PHD finger (ING3 PHD finger): bound | pull-down of GST-SPIN1 TUDOR (SPIN1 TUDOR): interacted | interaction with TAF3 PHD finger (TAF3 PHD finger): bound | pull-down of GST-ING3 PHD (ING3 PHD): methylation-dependent interactions

SRRK(me3)QGNPQHLS-Biotin [BCL11B K4me3]
interaction with PHF23 PHD finger (PHF23 PHD finger): selectively interacted | interaction with KDM7A PHD finger (KDM7A PHD finger): interacted | enrichment of endogenous SPIN1 (endogenous SPIN1): enriched | pull-down of GST-SPIN1 TUDOR (SPIN1 TUDOR): interacted | interaction with PHF2 PHD finger (PHF2 PHD finger): interacted | interaction with TAF3 PHD finger (TAF3 PHD finger): interacted | methylation by Set7/9 (Set7/9): could not methylate | enrichment of endogenous PHF2 (endogenous PHF2): very weakly | pull-down of GST-PHF2 PHD (PHF2 PHD): strongly interacted

VRTK(me3)ADSVPGTY-Biotin [PCLAF K4me3]
interaction with KDM7A PHD finger (KDM7A PHD finger): only recognized KDM7A
